From patent US9499550B2 (BRISTOL-MYERS SQUIBB COMPANY, priority 2012, dated 2016)
Read-outs that look alike come from different tables or passages of the source.

Tests used:
[1] = tested on: HCV genotype 1a (H77 strain) replicon in HUH-7 cells; test: HCV replicon luciferase reporter assay, genotype 1a; type: cell-based; details: Hepatitis C virus, Huh-7, 72 h, 3 days incubation
Procedure, shortened: (§1)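 Replicon inhibition for both genotypes was measured as Renilla luciferase signal (EnduRen, 7.5 μM final, 2 h) after 3-day, 37° C exposure of replicon-bearing HUH-7 cells in 4% FCS DMEM, 0.5% DMSO. The 1b construct carries S1179I; the 1a H77 construct carries P1496L and S2204I. Twenty-point, 3-fold dilutions were fitted four-parametrically for EC50, and CC50 was taken from multiplexed Cell Titer-Blue.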

[2] = tested on: HCV genotype 1b (Con1) replicon in HUH-7 cells; test: HCV replicon luciferase reporter assay, genotype 1b; type: cell-based; details: Hepatitis C virus, Huh-7, 72 h, 3 days incubation
Procedure, shortened: as §1

[3] = HCV genotype 1a replicon luciferase assay, range class, read-out: LE_1a (EC50, range)
[4] = HCV genotype 1b replicon luciferase assay, range class, read-out: LE_1b (EC50, range)
[5] = HCV genotype 1a replicon luciferase, read-out: LE_1a (EC50, range)
[6] = HCV genotype 1b replicon luciferase, read-out: LE_1b (EC50, range)
[7] = GETYPE1A, HCV genotype 1a replicon luciferase, read-out: LE_1a (EC50, range)
[8] = GETYPE1B, HCV genotype 1b replicon luciferase, read-out: LE_1b (EC50, range)

| SMILES | EC50 [1, 3] | EC50 [2, 4] | EC50 [1, 5] | EC50 [2, 6] | also measured |
| --- | --- | --- | --- | --- | --- |
| COc1ccc2c(O[C@@H]3C[C@H]4C(=O)N[C@]5(C(=O)NS(=O)(=O)C6(C)CC6)C[C@H]5/C=C\CC[C@@H](C)C[C@@H](C)[C@H](NC(=O)OC(C)(C)C(F)(F)F)C(=O)N4C3)nc(N3CCOCC3)cc2c1 [Compound 3095, 1,1,1-trifluoro-2-methylpropan-2-yl((2R,6S,7R,9R,13aS,14aR,16aS,Z)-2-((6-methoxy-3-morpholinoisoquinolin-1-yl)oxy)-7,9-dimethyl-14a-(((1-methylcyclopropyl)sulfonyl)carbamoyl)-5,16-dioxo-1,2,3,5,6,7,8,9,10,11,13a,14,14a,15,16,16a-hexadecahydrocyclopropa[e]pyrrolo[1,2-a][1,4]diazacyclopentadecin-6-yl)carbamate] | < 5.46 nM | < 5.46 nM |  |  |  |
| CC[C@@H]1C[C@H](C)CC/C=C\[C@@H]2C[C@@]2(C(=O)NS(=O)(=O)C2(C)CC2)NC(=O)[C@@H]2C[C@@H](Oc3cc4cc(OC)ccc4nc3OC)CN2C(=O)[C@H]1NC(=O)OC(C)(C)C [Compound 4377, tert-butyl ((2R,6S,7R,9R,13aS,14aR,16aS,Z)-2-((2,6-dimethoxyquinolin-3-yl)oxy)-7-ethyl-9-methyl-14a-(((1-methylcyclopropyl)sulfonyl)carbamoyl)-5,16-dioxo-1,2,3,5,6,7,8,9,10,11,13a,14,14a,15,16,16a-hexadecahydrocyclopropa[e]pyrrolo[1,2-a][1,4]diazacyclopentadecin-6-yl)carbamate] |  |  | 0.51 to 1 nM | 0.1 to 0.5 nM |  |
| COc1cnc(O[C@@H]2C[C@H]3C(=O)N[C@]4(C(=O)NS(=O)(=O)C5(CF)CC5)C[C@H]4/C=C\CC[C@@H](C)C[C@@H](C)[C@H](NC(=O)OC4(C(F)(F)F)CCCOC4)C(=O)N3C2)c2ccccc12 (stereo partly drawn) [Compound 1058, 3-(trifluoromethyl)tetrahydro-2H-pyran-3-yl((2R,6S,7R,9R,13aS,14aR,16aS,Z)-14a-(((1-(fluoromethyl)cyclopropyl)sulfonyl)carbamoyl)-2-((4-methoxyisoquinolin-1-yl)oxy)-7,9-dimethyl-5,16-dioxo-1,2,3,5,6,7,8,9,10,11,13a,14,14a,15,16,16a-hexadecahydrocyclopropa[e]pyrrolo[1,2-a][1,4]diazacyclopentadecin-6-yl)carbamate] | < 5.46 nM | < 5.46 nM |  |  |  |
| CC[C@@H]1C[C@H](C)CC/C=C\[C@@H]2C[C@@]2(C(=O)NS(=O)(=O)C2(C)CC2)NC(=O)[C@@H]2C[C@@H](Oc3cc(Cl)c4ccc(OC)cc4n3)CN2C(=O)[C@H]1NC(=O)OC(C)(C)C(F)(F)F [Compound 4298] |  |  |  |  | EC50 [1, 7]: 1.01 to 5 nM; EC50 [2, 8]: 1.01 to 5 nM |
| C[C@@H]1CC/C=C\[C@@H]2C[C@@]2(C(=O)NS(=O)(=O)C2CC2)NC(=O)[C@@H]2C[C@@H](Oc3nc(OCC(F)F)cc4c(Cl)cccc34)CN2C(=O)[C@@H](NC(=O)OC(C)(C)C)[C@H](C)C1 [Compound 1076, tert-butyl ((2R,6S,7R,9R,13aS,14aR,16aS,Z)-2-((5-chloro-3-(2,2-difluoroethoxyl)isoquinolin-1-yl)oxy)-14a-((cyclopropylsulfonyl)carbamoyl)-7,9-dimethyl-5,16-dioxo-1,2,3,5,6,7,8,9,10,11,13a,14,14a,15,16,16a-hexadecahydrocyclopropa[e]pyrrolo[1,2-a][1,4]diazacyclopentadecin-6-yl)carbamate] | < 5.46 nM | < 5.46 nM |  |  |  |
| [2H]C([2H])([2H])C(OC(=O)N[C@@H]1C(=O)N2C[C@H](Oc3nc(-c4ccc(OC(C)C)nc4)cc4cc(OC)ccc34)C[C@H]2C(=O)N[C@]2(C(=O)NS(=O)(=O)C3CC3)C[C@H]2/C=C\CC[C@H](C)C[C@H]1C)(C([2H])([2H])[2H])C(F)(F)F [Compound 5216, 1,1,1,3,3,3-hexadeutero-2-(trifluoromethyl)propan-2-yl((2R,6S,7R,9S,13aS,14aR,16aS,Z)-14a-((cyclopropylsulfonyl)carbamoyl)-2-((3-(6-isopropoxypyridin-3-yl)-6-methoxyisoquinolin-1-yl)oxy)-7,9-dimethyl-5,16-dioxo-1,2,3,5,6,7,8,9,10,11,13a,14,14a,15,16,16a-hexadecahydrocyclopropa[e]pyrrolo[1,2-a][1,4]diazacyclopentadecin-6-yl)carbamate] |  |  | 4.82 to 103 nM | < 5.46 nM |  |
| COc1cnc(O[C@@H]2C[C@H]3C(=O)N[C@]4(C(=O)NS(=O)(=O)C5(CF)CC5)C[C@H]4/C=C\CC[C@H](C)C[C@@H](C)[C@H](NC(=O)OC(C)(C)C)C(=O)N3C2)c2ccc(F)cc12 [Compound 3145, tert-butyl ((2R,6S,7R,9S,13aS,14aR,16aS,Z)-2-((6-fluoro-4-methoxyisoquinolin-1-yl)oxy)-14a-(((1-(fluoromethyl)cyclopropyl)sulfonyl)carbamoyl)-7,9-dimethyl-5,16-dioxo-1,2,3,5,6,7,8,9,10,11,13a,14,14a,15,16,16a-hexadecahydrocyclopropa[e]pyrrolo[1,2-a][1,4]diazacyclopentadecin-6-yl)carbamate] | 4.82 to 103 nM | 4.82 to 103 nM |  |  |  |
| CCOc1cnc(O[C@@H]2C[C@H]3C(=O)N[C@]4(C(=O)NS(=O)(=O)C5(C)CC5)C[C@H]4/C=C\CC[C@H](C)C[C@@H](C)[C@H](NC(=O)OC(C)(C)C(F)(F)F)C(=O)N3C2)c2ccc(OC)cc12 [Compound 4230] |  |  |  |  | EC50 [1, 7]: < 5.46 nM; EC50 [2, 8]: < 5.46 nM |
| COc1ccc2c(O[C@@H]3C[C@H]4C(=O)N[C@]5(C(=O)NS(=O)(=O)C6(C)CC6)C[C@H]5/C=C\CC[C@H](C)C[C@@H](C)[C@H](NC(=O)OC(C)(C)C)C(=O)N4C3)nc(-c3ccc(OC(C)C)nc3)cc2c1 [Compound 5222, tert-butyl ((2R,6S,7R,9S,13aS,14aR,16aS,Z)-2-((3-(6-isopropoxypyridin-3-yl)-6-methoxyisoquinolin-1-yl)oxy)-7,9-dimethyl-14a-(((1-methylcyclopropyl)sulfonyl)carbamoyl)-5,16-dioxo-1,2,3,5,6,7,8,9,10,11,13a,14,14a,15,16,16a-hexadecahydrocyclopropa[e]pyrrolo[1,2-a][1,4]diazacyclopentadecin-6-yl)carbamate] |  |  | 4.82 to 103 nM | < 5.46 nM |  |
| CC[C@@H]1C[C@H](C)CC/C=C\[C@@H]2C[C@@]2(C(=O)NS(=O)(=O)C2(C)CC2)NC(=O)[C@@H]2C[C@@H](Oc3nc4c(c5ccccc35)OCCC4)CN2C(=O)[C@H]1NC(=O)OC(C)(C)C [Compound 6024, tert-butyl ((2R,6S,7R,9R,13aS,14aR,16aS,Z)-2-((3,4-dihydro-2H-pyrano[3,2-c]isoquinolin-6-yl)oxy)-7-ethyl-9-methyl-14a-(((1-methylcyclopropyl)sulfonyl)carbamoyl)-5,16-dioxo-1,2,3,5,6,7,8,9,10,11,13a,14,14a,15,16,16a-hexadecahydrocyclopropa[e]pyrrolo[1,2-a][1,4]diazacyclopentadecin-6-yl)carbamate] |  |  | < 5.46 nM | < 5.46 nM |  |
| CC[C@@H]1C[C@H](C)CC/C=C\[C@@H]2C[C@@]2(C(=O)NS(=O)(=O)C2CC2)NC(=O)[C@@H]2C[C@@H](Oc3ncc(C(=O)O)c4cc(OC)ccc34)CN2C(=O)[C@H]1NC(=O)OC(C)(C)C(F)(F)F [Compound 4279, 1-(((2R,6S,7R,9R,13aS,14aR,16aS,Z)-14a-((cyclopropylsulfonyl)carbamoyl)-7-ethyl-9-methyl-5,16-dioxo-6-((((1,1,1-trifluoro-2-methylpropan-2-yl)oxy)carbonyl)amino)-1,2,3,5,6,7,8,9,10,11,13a,14,14a,15,16,16a-hexadecahydrocyclopropa[e]pyrrolo[1,2-1,2-a][1,4]diazacyclopentadecin-2-yl)oxy)-6-methoxyisoquinoline-4-carboxylic acid] |  |  | 35 to 620 nM | 35 to 620 nM |  |
| CCOc1nnc(O[C@@H]2C[C@H]3C(=O)N[C@]4(C(=O)NS(=O)(=O)C5CC5)C[C@H]4/C=C\CC[C@@H](C)C[C@@H](C)[C@H](NC(=O)OC(C)(C)C(F)(F)F)C(=O)N3C2)c2ccccc12 [Compound 5037, 1,1,1-trifluoro-2-methylpropan-2-yl((2R,6S,7R,9R,13aS,14aR,16aS,Z)-14a-((cyclopropylsulfonyl)carbamoyl)-2-((4-ethoxyphthalazin-1-yl)oxy)-7,9-dimethyl-5,16-dioxo-1,2,3,5,6,7,8,9,10,11,13a,14,14a,15,16,16a-hexadecahydrocyclopropa[e]pyrrolo[1,2-a][1,4]diazacyclopentadecin-6-yl)carbamate] |  |  | < 5.46 nM | < 5.46 nM |  |
| CCCOc1cnc(O[C@@H]2C[C@H]3C(=O)N[C@]4(C(=O)NS(=O)(=O)C5(C)CC5)C[C@H]4/C=C\CC[C@H](C)C[C@@H](C)[C@H](NC(=O)NC(C)(C)C(F)(F)F)C(=O)N3C2)c2ccccc12 [Compound 5086, (2R,6S,7R,9S,13aS,14aR,16aS,Z)-7,9-dimethyl-N-((1-methylcyclopropyl)sulfonyl)-5,16-dioxo-2-((4-propoxyisoquinolin-1-yl)oxy)-6-(3-(1,1,1-trifluoro-2-methylpropan-2-yl)ureido)-1,2,3,5,6,7,8,9,10,11,13a,14,14a,15,16,16a-hexadecahydrocyclopropa[e]pyrrolo[1,2-a][1,4]diazacyclopentadecine-14a-carboxamide] |  |  | > 87.4 nM | > 87.4 nM | EC50 ([1]; HCV genotype 1a replicon luciferase, read-out: LE_1a (EC50)): 411 nM; EC50 ([2]; HCV genotype 1b replicon luciferase, read-out: LE_1b (EC50)): 155 nM |
